What is called IC50 is the concentration at which inhibition is half-maximal.

Three molecules from US20260256920A1, “SELECTIVE HISTONE DEACETYLASE 3 (HDAC3) DERADERS AND METHODS OF USE THEREOF” (Dana-Farber Cancer Institute, Inc., priority 2022, published 2026) can be followed below.

One assay addresses T1, VHL (Homo sapiens, UniProt P40337).
T1 construct: Cells stably expressing the BRD4BD2-GFP with mCherry reporter were seeded; endogenous in cells; host or cells: unnamed cells stably expressing the BRD4BD2-GFP with mCherry reporter
Briefly: Cellular VHL engagement assay (BRD4BD2-GFP with mCherry reporter cells). As to conditions: cells stably expressing BRD4BD2-GFP with mCherry reporter, co-treated with 250 nM BRD4 degrader, 5 h. The class given is cell-based. The method, then:
Cells stably expressing the BRD4BD2-GFP with mCherry reporter were seeded at a density of 1000-4000 cells/well in 384-well plates with 50 μL per well of FluoroBrite™ DMEM media (Thermo Fisher Scientific™, A18967) supplemented with 2% FBS a day before compound treatment. Compounds 1 and 2, and 250 nM 1 ((2S,4R)-1-(2R)-2-acetamido-3-[[6-[2-[(6S)-4-(4-chlorophenyl)-2,3,9-trimethyl-6H-thieno[3,2-f][1,2,4]triazolo[4,3-a][1,4]diazepin-6-yl]acetamido]hexyl]thio]-3-methylbutanoyl]-4-hydroxy-N-[4-(4-methylthiazol-5-yl)benzyl) pyrrolidinine-2-carboxamide) were dispensed using a D300e Digital Dispenser (HP), normalized to 0.5% DMSO, and incubated with the cells for 5 h. The assay plate was imaged immediately using an Acumen® High Content Imager (TTP Labtech) with 488 nm and 561 nm lasers in a 2 μm×1 μm grid per well format. The resulting images were analyzed using CellProfiler™.
A series of image analysis steps (an ‘image analysis pipeline’) was constructed. […] A background illumination function was calculated for both red and green channels of each well individually and subtracted to correct for illumination variations across the 384-well plate from various sources of error. […] The fraction of GFP-positive cells/mCherry-positive cells in each well was then calculated, and the green and red images were rescaled for visualization. […]

A further assay addresses T2, HDAC3 (Homo sapiens, UniProt O15379).
T2 construct: endogenous in cells; host or cells: Kelly cells
Briefly: Quantitative LC-MS proteomics of relative protein abundance in treated Kelly cells. The class given is cell-based. As to conditions: 1 μM compound, 5 hr, compared to DMSO control. How it is done:
Kelly cells were treated with DMSO or 1 μM of compound 2 or 3 for 5 hr and cells were harvested by centrifugation at 4° C. before snap freezing in liquid nitrogen. Cell lysis was performed by the addition of Urea buffer (8 M Urea, 50 mM NaCl, 50 mM 4-(2-hydroxyethyl)-1-piperazineethanesulfonic acid (EPPS) pH 8.5, Protease and Phosphatase inhibitors) followed by manual homogenization by 20 passes through a 21-gauge (1.25 in. long) needle. Lysate was clarified by centrifugation and protein quantified using bradford (Bio-Rad) assay. 50 μg of protein for each sample was reduced, alkylated and precipitated using methanol/chloroform as described in Donovan et al., eLife 7: e38430 (2018). The resulting precipitated protein was resuspended in 4 M Urea, 50 mM HEPES pH 7.4, buffer for solubilization, followed by dilution to 1 M urea with the addition of 200 mM EPPS, pH 8. Proteins were digested for 12 hours at room temperature with LysC (1:50 ratio), followed by dilution to 0.5 M urea and a second digestion step was performed by addition of trypsin (1:50 ratio) for 6 hours at 37° C. […]
The diaPASEF raw file processing and controlling peptide and protein level false discovery rates, assembling proteins from peptides, and protein quantification from peptides was performed using library free analysis in DIA-NN 1.8 (Demichev et al., Nature Methods 17:41-44 (2020)). […]

T1 sequence (P40337 whole entry, species assumed): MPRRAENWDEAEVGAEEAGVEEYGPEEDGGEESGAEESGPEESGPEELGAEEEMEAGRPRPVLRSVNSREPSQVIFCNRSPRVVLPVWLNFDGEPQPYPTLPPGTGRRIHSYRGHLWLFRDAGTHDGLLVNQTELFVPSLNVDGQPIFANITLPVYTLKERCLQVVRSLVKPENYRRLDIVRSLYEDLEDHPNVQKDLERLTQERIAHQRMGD
T2 sequence (O15379 whole entry): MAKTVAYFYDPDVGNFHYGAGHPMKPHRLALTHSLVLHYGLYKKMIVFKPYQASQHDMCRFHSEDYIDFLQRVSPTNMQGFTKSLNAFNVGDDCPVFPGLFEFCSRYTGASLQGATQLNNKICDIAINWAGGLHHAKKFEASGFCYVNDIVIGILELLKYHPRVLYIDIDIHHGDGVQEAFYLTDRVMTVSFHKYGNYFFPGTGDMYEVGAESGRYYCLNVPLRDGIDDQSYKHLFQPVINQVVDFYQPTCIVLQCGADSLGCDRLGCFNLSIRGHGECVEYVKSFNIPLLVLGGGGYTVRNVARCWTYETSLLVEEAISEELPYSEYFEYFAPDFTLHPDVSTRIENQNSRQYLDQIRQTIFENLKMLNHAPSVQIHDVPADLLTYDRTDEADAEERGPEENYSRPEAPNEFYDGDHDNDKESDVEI
T2 sequence (Q9Y618 389-480 partner limits assumed): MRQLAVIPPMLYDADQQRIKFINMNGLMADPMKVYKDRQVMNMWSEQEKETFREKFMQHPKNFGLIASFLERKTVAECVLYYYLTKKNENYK

Take `CCCNNC(=O)/C=C/c1ccc(CN(CCOCCC(=O)N[C@H](C(=O)N2C[C@H](O)C[C@H]2C(=O)N[C@@H](C)c2ccc(-c3scnc3C)cc2)C(C)(C)C)CCc2c[nH]c3ccccc23)cc1` [Compound 1, (2S,4R)-1-((S)-2-(3-(2-((2-(1H-indol-3-yl)ethyl) (4-((E)-3-oxo-3-(2-propylhydrazineyl)prop-1-en-1-yl)benzyl)amino)ethoxy)propanamido)-3,3-dimethylbutanoyl)-4-hydroxy-N—((S)-1-(4-(4-methylthiazol-5-yl)phenyl)ethyl) pyrrolidine-2-carboxamide]: the IC50 at VHL is 16.8 µM. On to `CCCNNC(=O)/C=C/c1ccc(CN(CCOCCOCCC(=O)N[C@H](C(=O)N2C[C@H](O)C[C@H]2C(=O)N[C@@H](C)c2ccc(-c3scnc3C)cc2)C(C)(C)C)CCc2c[nH]c3ccccc23)cc1` [Compound 2, (2S,4R)-1-((S)-14-(tert-butyl)-1-(1H-indol-3-yl)-12-oxo-3-(4-((E)-3-oxo-3-(2-propylhydrazineyl)prop-1-en-1-yl)benzyl)-6,9-dioxa-3,13-diazapentadecan-15-oyl)-4-hydroxy-N—((S)-1-(4-(4-methylthiazol-5-yl)phenyl)ethyl) pyrrolidine-2-carboxamide], for which the IC50 on VHL amounted to 6.78 µM. Further, the “relative change in HDAC3 protein abundance (degradation and selectivity)” value at HDAC3 is “significant and selective reduction in HDAC3 protein levels”. Take `CCCNNC(=O)/C=C/c1ccc(CN(CCCCCOc2cc(-c3scnc3C)ccc2CNC(=O)[C@@H]2C[C@@H](O)CN2C(=O)[C@@H](NC(=O)C2(F)CC2)C(C)(C)C)CCc2c[nH]c3ccccc23)cc1` [Compound 3, (2S,4R)—N-(2-((5-((2-(1H-indol-3-yl)ethyl) (4-((E)-3-oxo-3-(2-propylhydrazineyl)prop-1-en-1-yl)benzyl)amino)pentyl)oxy)-4-(4-methylthiazol-5-yl)benzyl)-1-((S)-2-(1-fluorocyclopropane-1-carboxamido)-3,3-dimethylbutanoyl)-4-hydroxypyrrolidine-2-carboxamide]: the “relative change in HDAC3 protein abundance (degradation and selectivity)” value on HDAC3 was “significant and selective reduction in HDAC3 protein levels”.
